These compounds were tested against T1, human PAH with the R408W mutation (Homo sapiens, UniProt P00439, R408W) (assay: Cell Based Phenylalanine Flux Assay). Details: A375 cells expressing R408W PAH; 24 hrs with compound, then 20 µM sepiapterin and 800 µM 13C9,15N-Phenylalanine for 4 hours; 13C-Tyrosine by LC-MS; average where tested multiple times; read-out: AC50.
T1 construct: expressed in transfected cells
T1 sequence (P00439 1-452 R408W): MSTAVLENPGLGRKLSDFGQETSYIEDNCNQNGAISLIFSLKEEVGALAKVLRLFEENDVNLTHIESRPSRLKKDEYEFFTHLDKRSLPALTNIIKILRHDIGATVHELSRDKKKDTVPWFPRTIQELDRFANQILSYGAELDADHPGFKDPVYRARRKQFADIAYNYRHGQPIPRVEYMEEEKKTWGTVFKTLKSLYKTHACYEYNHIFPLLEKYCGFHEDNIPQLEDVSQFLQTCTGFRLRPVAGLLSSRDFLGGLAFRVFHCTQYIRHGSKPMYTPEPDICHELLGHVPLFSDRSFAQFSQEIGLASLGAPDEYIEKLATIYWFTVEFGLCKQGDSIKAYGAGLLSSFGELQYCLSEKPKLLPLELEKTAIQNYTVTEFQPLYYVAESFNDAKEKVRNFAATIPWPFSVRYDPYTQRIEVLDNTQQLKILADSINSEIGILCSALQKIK
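Further: after compound treatment, cells received sepiapterin plus isotope-labelled Phenylalanine for 4 hours, then labelled Tyrosine in the medium was quantified, 10-point 2-fold dilution series run in duplicate.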

Structure (SMILES)	AC50
CC(C)(O)c1cc(C(=O)N2CCc3[nH]cnc3C2c2cc3ccccn3n2)on1 (centres unmarked)	1 to 5 µM
Fc1cccc2cc(C3c4nc[nH]c4CCN3c3nnc(C4CC4)o3)nn12 (centres unmarked)	1 to 5 µM
O=C(c1cnn2ccccc12)N1CCc2[nH]cnc2C1c1cc2cccc(C(F)(F)F)n2n1 (centres unmarked)	1 to 5 µM

Other lines, results leading:

AC50	Structure (SMILES)
1 to 5 µM	Cc1nnc(N2CCc3[nH]cnc3C2c2cc3ccccn3n2)o1 (centres unmarked)
1 to 5 µM	Cc1cccn2nc(C3c4nc[nH]c4CCN3c3cnn(C)c3)cc12 (centres unmarked)

Same assay, conditions: A375 cells expressing human PAH R408W; 24 hrs compound incubation; 13C-Tyrosine by LC-MS; average where tested multiple times; read-out: AC50

Structure (SMILES)	AC50
O=C(c1cnc(C2CC2)o1)N1CCc2[nH]cnc2[C@H]1c1cc2c(C(F)F)cccn2n1 [Example 2102, (S)-(2-cyclopropyloxazol-5-yl)(4-(4-(difluoromethyl)pyrazolo[1,5-a]pyridin-2-yl)-1,4,6,7-tetrahydro-5H-imidazo[4,5-c]pyridin-5-yl)methanone]	< 0.5 µM
Cc1nnc(C(=O)N2CCc3[nH]cnc3[C@H]2c2cc3c(C)cccn3n2)s1 [Example 2501, (S)-(5-methyl-1,3,4-thiadiazol-2-yl)(4-(4-methylpyrazolo[1,5-a]pyridin-2-yl)-1,4,6,7-tetrahydro-5H-imidazo[4,5-c]pyridin-5-yl)methanone]	1 to 5 µM
Cc1cccc2cc([C@H]3c4nc[nH]c4CCN3c3nnc(C(F)(F)F)o3)nn12 [Example 1851, (R)-2-(4-(7-methylpyrazolo[1,5-a]pyridin-2-yl)-6,7-dihydro-1H-imidazo[4,5-c]pyridin-5(4H)-yl)-5-(trifluoromethyl)-1,3,4-oxadiazole]	1 to 5 µM

More lines, now with the values ahead:

AC50	Structure (SMILES)
1 to 5 µM	CN(C)c1ccc2c(C(=O)N3CCc4[nH]cnc4[C@H]3c3cc4cccc(Cl)n4n3)cnn2c1 [Example 2474, (S)-(4-(7-chloropyrazolo[1,5-a]pyridin-2-yl)-6,7-dihydro-1H-imidazo[4,5-c]pyridin-5(4H)-yl)(6-(dimethylamino)pyrazolo[1,5-a]pyridin-3-yl)methanone]
1 to 5 µM	Cc1cc(C(=O)N2CCc3[nH]cnc3[C@H]2c2cc3c(F)cccn3n2)n(C)n1 [Example 2390, (S)-(1,3-dimethyl-1H-pyrazol-5-yl)(4-(4-fluoropyrazolo[1,5-a]pyridin-2-yl)-6,7-dihydro-1H-imidazo[4,5-c]pyridin-5(4H)-yl)methanone]
> 5 µM	FC(F)(F)c1cccn2nc([C@H]3c4nc[nH]c4CCN3c3cnccn3)cc12 [Example 1818, (R)-5-(pyrazin-2-yl)-4-(4-(trifluoromethyl)pyrazolo[1,5-a]pyridin-2-yl)-4,5,6,7-tetrahydro-1H-imidazo[4,5-c]pyridine]
1 to 5 µM	Cn1nc(C(F)(F)F)nc1C(=O)N1CCc2[nH]cnc2[C@H]1c1cc2c(F)cccn2n1 [Example 2398, (S)-(4-(4-fluoropyrazolo[1,5-a]pyridin-2-yl)-6,7-dihydro-1H-imidazo[4,5-c]pyridin-5(4H)-yl)(1-methyl-3-(trifluoromethyl)-1H-1,2,4-triazol-5-yl)methanone]
1 to 5 µM	FC(F)c1nnc(N2CCc3[nH]cnc3[C@H]2c2cc3ccccn3n2)o1 [Example 2461, (S)-2-(difluoromethyl)-5-(4-(pyrazolo[1,5-a]pyridin-2-yl)-6,7-dihydro-1H-imidazo[4,5-c]pyridin-5(4H)-yl)-1,3,4-oxadiazole]
1 to 5 µM	Cn1nc(C(F)(F)F)nc1C(=O)N1CCc2[nH]cnc2[C@H]1c1cc2ccccn2n1 [Example 2372, (S)-(1-methyl-3-(trifluoromethyl)-1H-1,2,4-triazol-5-yl)(4-(pyrazolo[1,5-a]pyridin-2-yl)-6,7-dihydro-1H-imidazo[4,5-c]pyridin-5(4H)-yl)methanone]

Same assay, conditions: A375 cells expressing human R408W PAH; 24 hrs compound incubation; 13C-Tyrosine by LC-MS; average where tested multiple times; read-out: AC50

Structure (SMILES)	AC50
O=C(c1nnc(-c2ccccn2)o1)N1CCc2[nH]cnc2[C@H]1c1cc2ccc(F)cn2n1 [Example 1090, (S)-(4-(6-fluoropyrazolo[1,5-a]pyridin-2-yl)-6,7-dihydro-1H-imidazo[4,5-c]pyridin-5(4H)-yl)(5-(pyridin-2-yl)-1,3,4-oxadiazol-2-yl)methanone]	0.5 to 1 µM
Cc1cccc(-c2nnc(C(=O)N3CCc4[nH]cnc4[C@H]3c3cc4c(C(F)F)cccn4n3)o2)n1 [Example 1465, (S)-(4-(4-(difluoromethyl)pyrazolo[1,5-a]pyridin-2-yl)-6,7-dihydro-1H-imidazo[4,5-c]pyridin-5(4H)-yl)(5-(6-methylpyridin-2-yl)-1,3,4-oxadiazol-2-yl)methanone]	< 0.5 µM
O=C(c1ccnn1C(F)F)N1CCc2[nH]cnc2[C@@H]1c1cc2cc(F)ccn2n1 [Example 1093, (R)-(1-(difluoromethyl)-1H-pyrazol-5-yl)(4-(5-fluoropyrazolo[1,5-a]pyridin-2-yl)-6,7-dihydro-1H-imidazo[4,5-c]pyridin-5(4H)-yl)methanone]	1 to 5 µM
CC(C)c1nnc(C(=O)N2CCc3[nH]cnc3[C@@H]2c2cc3cccc(C(F)F)n3n2)o1 [Example 1493, (R)-(4-(7-(difluoromethyl)pyrazolo[1,5-a]pyridin-2-yl)-6,7-dihydro-1H-imidazo[4,5-c]pyridin-5(4H)-yl)(5-isopropyl-1,3,4-oxadiazol-2-yl)methanone]	1 to 5 µM
O=C(c1nnc(-c2ccccn2)o1)N1CCc2[nH]cnc2[C@H]1c1cc2c(OC(F)(F)F)cccn2n1 [Example 1760, (S)-(5-(pyridin-2-yl)-1,3,4-oxadiazol-2-yl)(4-(4-(trifluoromethoxy)pyrazolo[1,5-a]pyridin-2-yl)-6,7-dihydro-1H-imidazo[4,5-c]pyridin-5(4H)-yl)methanone]	< 0.5 µM
COc1ccc(-c2nnc(C(=O)N3CCc4[nH]cnc4[C@@H]3c3cc4cccc(C(F)F)n4n3)o2)nc1 [Example 1579, (R)-(4-(7-(difluoromethyl)pyrazolo[1,5-a]pyridin-2-yl)-6,7-dihydro-1H-imidazo[4,5-c]pyridin-5(4H)-yl)(5-(5-methoxypyridin-2-yl)-1,3,4-oxadiazol-2-yl)methanone]	> 5 µM
O=C(c1nnc(-c2cnn(C(F)F)c2)o1)N1CCc2[nH]cnc2[C@@H]1c1cc2cccc(F)n2n1 [Example 985, (R)-(5-(1-(difluoromethyl)-1H-pyrazol-4-yl)-1,3,4-oxadiazol-2-yl)(4-(7-fluoropyrazolo[1,5-a]pyridin-2-yl)-6,7-dihydro-1H-imidazo[4,5-c]pyridin-5(4H)-yl)methanone]	1 to 5 µM
Cc1cccn2nc([C@@H]3c4nc[nH]c4CCN3c3nnc(-c4ccccn4)o3)cc12 [Example 1637, (S)-2-(4-(4-methylpyrazolo[1,5-a]pyridin-2-yl)-6,7-dihydro-1H-imidazo[4,5-c]pyridin-5(4H)-yl)-5-(pyridin-2-yl)-1,3,4-oxadiazole]	< 0.5 µM
Cn1nc(C(F)F)cc1C(=O)N1CCc2[nH]cnc2[C@H]1c1cc2c(C(F)(F)F)cccn2n1 [Example 1370, (S)-(3-(difluoromethyl)-1-methyl-1H-pyrazol-5-yl)(4-(4-(trifluoromethyl)pyrazolo[1,5-a]pyridin-2-yl)-6,7-dihydro-1H-imidazo[4,5-c]pyridin-5(4H)-yl)methanone]	< 0.5 µM
Cc1nc(C(C)(C)F)oc1C(=O)N1CCc2[nH]cnc2[C@H]1c1cc2c(C)cccn2n1 [Example 1260, (S)-(2-(2-fluoropropan-2-yl)-4-methyloxazol-5-yl)(4-(4-methylpyrazolo[1,5-a]pyridin-2-yl)-6,7-dihydro-1H-imidazo[4,5-c]pyridin-5(4H)-yl)methanone]	< 0.5 µM
Cn1cc(-c2nnc(C(=O)N3CCc4[nH]cnc4[C@H]3c3cc4c(C(F)(F)F)cccn4n3)o2)cn1 [Example 828, (S)-(5-(1-methyl-1H-pyrazol-4-yl)-1,3,4-oxadiazol-2-yl)(4-(4-(trifluoromethyl)pyrazolo[1,5-a]pyridin-2-yl)-6,7-dihydro-1H-imidazo[4,5-c]pyridin-5(4H)-yl)methanone]	< 0.5 µM

Further lines, results first:

AC50	Structure (SMILES)
1 to 5 µM	Cn1nc(Cl)nc1C(=O)N1CCc2[nH]cnc2[C@@H]1c1cc2c(F)cccn2n1 [Example 763, (R)-(3-chloro-1-methyl-1H-1,2,4-triazol-5-yl)(4-(4-fluoropyrazolo[1,5-a]pyridin-2-yl)-6,7-dihydro-1H-imidazo[4,5-c]pyridin-5(4H)-yl)methanone]
> 5 µM	O=C(c1nnc(-c2cnccn2)o1)N1CCc2[nH]cnc2[C@@H]1c1cc2cccc(C(F)(F)F)n2n1 [Example 1360, (R)-(5-(pyrazin-2-yl)-1,3,4-oxadiazol-2-yl)(4-(7-(trifluoromethyl)pyrazolo[1,5-a]pyridin-2-yl)-6,7-dihydro-1H-imidazo[4,5-c]pyridin-5(4H)-yl)methanone]
< 0.5 µM	Cc1cccc2cc([C@@H]3c4nc[nH]c4CCN3C(=O)c3ocnc3C(F)(F)F)nn12 [Example 1146, (S)-(4-(7-methylpyrazolo[1,5-a]pyridin-2-yl)-6,7-dihydro-1H-imidazo[4,5-c]pyridin-5(4H)-yl)(4-(trifluoromethyl)oxazol-5-yl)methanone]
1 to 5 µM	CC(C)(F)c1nnc(C(=O)N2CCc3[nH]cnc3[C@@H]2c2cc3cccc(F)n3n2)o1 [Example 986, (R)-(5-(2-fluoropropan-2-yl)-1,3,4-oxadiazol-2-yl)(4-(7-fluoropyrazolo[1,5-a]pyridin-2-yl)-6,7-dihydro-1H-imidazo[4,5-c]pyridin-5(4H)-yl)methanone]
